# Biological target: T1, farnesol X receptor (FXR) (Homo sapiens, UniProt Q96RI1)
# T1 construct: endogenous in cells; host or cells: HepG2
# T1 sequence (Q96RI1 1-486): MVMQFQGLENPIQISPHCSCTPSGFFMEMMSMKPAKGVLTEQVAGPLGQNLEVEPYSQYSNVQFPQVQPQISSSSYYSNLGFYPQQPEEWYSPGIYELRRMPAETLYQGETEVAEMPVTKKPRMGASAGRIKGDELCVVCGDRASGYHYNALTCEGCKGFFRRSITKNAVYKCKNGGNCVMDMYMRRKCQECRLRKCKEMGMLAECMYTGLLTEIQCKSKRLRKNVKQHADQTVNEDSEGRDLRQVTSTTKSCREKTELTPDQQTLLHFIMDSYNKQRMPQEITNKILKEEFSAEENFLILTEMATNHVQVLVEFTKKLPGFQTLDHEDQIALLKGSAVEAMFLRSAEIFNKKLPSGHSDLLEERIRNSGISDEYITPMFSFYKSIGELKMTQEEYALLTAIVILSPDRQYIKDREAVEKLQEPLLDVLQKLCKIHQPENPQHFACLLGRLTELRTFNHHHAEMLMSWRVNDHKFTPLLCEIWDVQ
# Experiment: Farnesol X receptor (FXR) reporter gene assay (dual luciferase) in HepG2 cells
# Format: cell-based
# Settings: dose 10 uM; HepG2 cells, drug treatment 24 hours; firefly/renilla luciferase ratio, Con = 1.00
# Protocol: HepG2 cells were purchased from ATCC (Manassas, VA, USA) and cultured in Dulbecco's modified Eagle's medium (DMEM; Hyclone) containing 10% fetal bovine serum (FBS, Hyclone, Logan, UT, USA), 50 units/mL penicillin (Hyclone) and 50 μg/mL streptomycin (Hyclone). All cells were cultured to have a confluency of about 80% to 90% under the conditions of 37° C. and 5% Co2.
# In order to measure FXR transcription factor activity, HepG2 cells (1×10^5 cells/well) were cultured in a 48-well cell culture plate (SPL Life Science Co., Gyeonggido, Korea) for 20 hours and then transduced using Lipofectamin L3000 (Invitrogen, San Diego, CA, USA). Luciferase is an enzyme that catalyzes light-emitting reactions. A plasmid in which the firefly luciferase gene was fused to farnesol X receptor (FXR) and a plasmid in which the renilla luciferase gene was fused to thymidine kinase (TK) were used for transduction. Reacted were 25 μL of serum and antibiotic-free Opti-MEM® (Life Technologies, Grand Island, NY) and 0.5 μL of Lipofectamin L3000 per 0.5 μg of FXR-firefly luciferase plasmid and 10 ng of TK-renilla luciferase plasmid, and the cells were reacted with the reaction mixture for 24 hours. Thereafter, DMEM medium containing 0.1% serum was treated with a drug for 24 hours. After the reaction was completed, the drug-treated culture medium was discarded, and lysis buffer was added at 0.4 ml/well to remove the cells, then the cells were dispensed into a 96-well white plate (SPL Life Science Co.), and the luminescence level was measured using the Dual-glo Luciferase Assay System (Promega, Madison, WI, USA). For the firefly luciferase activity (to see the level of FXR expression) and renilla luciferase activity (to provide a reference value by showing constant expression), the luminescence level was measured using the GloMax Multi Detection System (Promega) and then the relative ratio (firefly luciferase activity/renilla luciferase activity) was calculated.
row,SMILES,fold induction at 10 µM
1,"CCOC(=O)CNC(=O)/C=C/c1ccc(OCc2cccc(OC(F)(F)F)c2)cc1 [KS-007, ethyl (E)-(3-(4-((3-(trifluoromethoxy)benzyl)oxy)phenyl)acryloyl)glycinate]",1.02
2,"Cc1onc(-c2c(Cl)cccc2Cl)c1COc1ccc(/C=C/C(=O)N[C@@H](Cc2ccccc2)C(=O)O)cc1 [KS-041, (E)-(3-(4-((3-(2,6-dichlorophenyl)-5-methylisoxazol-4-yl)methoxy)phenyl)acryloyl)-L-phenylalanine]",3.23
3,"O=C(O)CNC(=O)/C=C/c1ccc(OCc2ccc(OC(F)(F)F)cc2)cc1 [KS-015, (E)-(3-(4-((4-(trifluoromethoxy)benzyl)oxy)phenyl)acryloyl)glycine]",2.65
4,"CCOC(=O)CNC(=O)/C=C/c1ccc(OCc2cc(F)c(F)cc2F)cc1 [KS-009, ethyl (E)-(3-(4-((2,4,5-trifluorobenzyl)oxy)phenyl)acryloyl)glycinate]",1.44
5,"COC(=O)[C@H](Cc1ccccc1)NC(=O)/C=C/c1ccc(OCc2c(-c3ccccc3)noc2C)cc1 [KS-039, methyl (E)-(3-(4-((5-methyl-3-phenylisoxazol-4-yl)methoxy)phenyl)acryloyl)-L-phenylalaninate]",1.06
6,"O=C(O)CNC(=O)/C=C/c1ccc(OCc2cccc([N+](=O)[O-])c2)cc1 [KS-020, (E)-(3-(4-((3-nitrobenzyl)oxy)phenyl)acryloyl)glycine]",1.39
7,"COC(=O)[C@@H](C)NC(=O)/C=C/c1ccc(OCc2c(-c3c(Cl)cccc3Cl)noc2C)cc1 [KS-050, methyl (E)-(3-(4-((3-(2,6-dichlorophenyl)-5-methylisoxazol-4-yl)methoxy)phenyl)acryloyl)-D-alaninate]",2
8,"CCOC(=O)CNC(=O)/C=C/c1ccc(OCc2ccc(OC(F)(F)F)cc2)cc1 [KS-003, ethyl (E)-(3-(4-((4-(trifluoromethoxy)benzyl)oxy)phenyl)acryloyl)glycinate]",1.1
9,"CCOC(=O)CNC(=O)/C=C/c1ccc(OCc2ccc(F)cc2)cc1 [KS-005, ethyl (E)-(3-(4-((4-fluorobenzyl)oxy)phenyl)acryloyl)glycinate]",1.21
10,"CC(C)c1onc(-c2c(Cl)cccc2Cl)c1COc1ccc(/C=C/C(=O)NCC(=O)O)cc1 [KS-022, (E)-(3-(4-((3-(2,6-dichlorophenyl)-5-isopropylisoxazol-4-yl)methoxy)phenyl)acryloyl)glycine]",3.34
11,"COC(=O)[C@@H](C)NC(=O)/C=C/c1ccc(OCc2c(-c3c(Cl)cccc3Cl)noc2C(C)C)cc1 [KS-049, methyl (E)-(3-(4-((3-(2,6-dichlorophenyl)-5-isopropylisoxazol-4-yl)methoxy)phenyl)acryloyl)-D-alaninate]",9.55
12,"CCOC(=O)CNC(=O)/C=C/c1ccc(OCc2ccc(-c3ccccc3)cc2)cc1 [KS-004, ethyl (E)-(3-(4-([1,1′-biphenyl]-4-ylmethoxy)phenyl)acryloyl)glycinate]",2.03
13,"Cc1onc(-c2ccccc2)c1COc1ccc(/C=C/C(=O)NCCC(=O)O)cc1 [KS-048, (E)-3-(3-(4-((5-methyl-3-phenylisoxazol-4-yl)methoxy)phenyl)acrylamido)propanoic acid]",1.13
14,"COC(=O)[C@H](Cc1ccccc1)NC(=O)/C=C/c1ccc(OCc2c(-c3c(Cl)cccc3Cl)noc2C(C)C)cc1 [KS-037, methyl (E)-(3-(4-((3-(2,6-dichlorophenyl)-5-isopropylisoxazol-4-yl)methoxy)phenyl)acryloyl)-L-phenylalaninate]",7.95
15,"CCOC(=O)[C@@H](NC(=O)/C=C/c1ccc(OCc2c(-c3ccccc3)noc2C)cc1)C(C)C [KS-033, ethyl (E)-(3-(4-((5-methyl-3-phenylisoxazol-4-yl)methoxy)phenyl)acryloyl)-L-valinate]",0.93

# Same assay, conditions: statement on Table 4 data
row,SMILES,FXR activating effect compared with GW4064
1,"COC(=O)[C@@H](C)NC(=O)/C=C/c1ccc(OCc2c(-c3c(Cl)cccc3Cl)noc2C(C)C)cc1 [KS-049, methyl (E)-(3-(4-((3-(2,6-dichlorophenyl)-5-isopropylisoxazol-4-yl)methoxy)phenyl)acryloyl)-D-alaninate]",superior to GW4064
2,"COC(=O)[C@H](Cc1ccccc1)NC(=O)/C=C/c1ccc(OCc2c(-c3c(Cl)cccc3Cl)noc2C(C)C)cc1 [KS-037, methyl (E)-(3-(4-((3-(2,6-dichlorophenyl)-5-isopropylisoxazol-4-yl)methoxy)phenyl)acryloyl)-L-phenylalaninate]",superior to GW4064

# Reference: patent publication US12552755B2, “Cinnamic amide derivative having FXR activating effect, pharmaceutical composition containing the same as active ingredient, and method for preparing the same” (KYUNGSUNG UNIVERSITY INDUSTRY COOPERATION FOUNDATION, priority 2019, dated 2026)
